Laboratory results from the NIST ThermoML archive (doi:10.1021/je300146k).
Numbers after ± are expanded uncertainties.

Settings: 298.15 K; 101.33 kPa; Liquid; Vibrating tube method

SMILES | mass density [kg/m3]
CCCCCCCCCC [decane] | 726.43 ± 0.26
OCc1ccccc1 [benzenemethanol] | 1043.53 ± 0.29
CCCCCCCCCCCC [dodecane] | 741.54 ± 0.58

Next, values leading:

mass density [kg/m3] | SMILES
679.71 ± 0.21 | CCCCCCC [heptane]
759.27 ± 0.26 | CCCCCCCCCCCCCC [tetradecane]
698.76 ± 0.26 | CCCCCCCC [octane]
